Results from US20220015355A1, “NOVEL CARRIER FLUIDS FOR LIQUID FUNGAL SPORE FORMULATIONS” (priority 2018, published 2022).
Where two headings read alike, the source gives them in different places.

What was measured:
[1] = tested on: P. lilacinum strain 251 spores; test: spore viability (germination rate on agar) of P. lilacinum spores in carrier fluid after storage at 30° C.; type: cell-based, Purpureocillium lilacinum
Procedure: (§1) 3 g of P. lilacinum strain 251 pure spore powder were transferred into a formulation vessel (IKA Type DT-20 mixing vessel with dispersion tool for Ultra Turrax) using a sterile spoon. 12 mL of fluid were added into the respective formulation vessel and dispersed using ultra turrax tube drive control for 1 min at 3000 rpm; change direction after 30 sec. After this 2.8 mL were transferred in four sample bottles (Wheaton Serum vial, Type I) leaving little headspace and closed tight using crimpneck caps (Macherey—Nagel type N 13) Afterwards all sample bottles were transferred to an incubator set at 30° C. and stored for a given time.
(§2) In regular intervals a sample was retrieved from the storage location and analyzed for spore viability. Therefore the original samples were thoroughly homogenized. Aliquots of 0.25 g or […] of each sample are transferred into 50 mL falcon tubes. The tubes were filled up to 25 g using a sterile aqueous solution containing 2% Tween 80 and homogenized by vortexing to achieve the first dilution step (1:100 dilution). This dilution is used for further dilution and spotting on agar.
(§3) For evaluation of spore germination rate prepare a 1:30000 dilution based on the 1:100 dilution achieved by multiple automated dilution (pipetting robot, 96 well plate). Afterwards 12×12 cm agar plates are taken and spotted with 10 times […] of each sample using an automated 12-Channel pipet. Wait until liquid is soaked up by agar and transfer agar plate to an incubator and incubate at 25° C. for 17 hours. Open the plate and place it under the microscope. Randomly choose one area per spot and record the number of germinated and non-germinated spores that are within the designated field. At least 200 spores per sample need to be evaluated. If needed count more than one field per spot.

[2] = tested on: Isaria fumosorosea spores; test: spore viability of Isaria fumosorosea spores in carrier fluid after storage at 30° C., Method 1 (germination on agar); type: cell-based
Procedure: as §1, with “Method 1: 1.5 g” for “3 g”, “of Isaria fumosorosea” for “of P. lilacinum strain 251”, “spoon. 13.5” for “spoon. 12”
as §2
For evaluation of spore germination rate a 1:15000 dilution based on the 1:100 dilution achieved by multiple automated dilution (pipetting robot, 96 well plate) was prepared. Afterwards 12×12 cm agar plates were taken and spotted with 10 times 5 μL of each sample using an automated 12-Channel pipet. After all liquid is soaked up by agar the agar plates were incubated at 23° C. for 16 hours.

[3] = tested on: Beauveria Bassiana spores; test: spore viability (germination rate on agar) of Beauveria bassiana spores in carrier fluid after storage at 30° C.; type: cell-based
Procedure: as §1, with “1.5 g” for “3 g”, “of Beauveria Bassiana” for “of P. lilacinum strain 251”, “spoon. 13.5” for “spoon. 12”
as §2
as §3, with “1:15000” for “1:30000”, “20°” for “25°”

[4] = tested on: Isaria fumosorosea spores; test: spore viability of Isaria fumosorosea spores in carrier fluid after storage, Method 2 (flow cytometry); type: cell-based
Procedure: Method 2: 0.5 g of Isaria fumosoresea pure spore powder were transferred into an Erlenmeyer flask using a sterile spoon. 24.5 mL of fluid were dispersed using Ultra-Turrax (IKA; Type T 25 D) for 1 min at 3,000 rpm. After this, 2.0 mL were transferred in 20 sample bottles (Wheaton Serum vial, Type I) leaving little headspace and closed tight using crimpneck caps (Macherey—Nagel type N 13). Afterwards all sample bottles were transferred to an incubator set at 30° C. and stored for a given time.
In regular intervals a sample was retrieved from the storage location and analyzed for spore viability. For this purpose, the original samples were thoroughly homogenized. Aliquots of 0.5 g of each sample were transferred into 100 mL-Erlenmeyer flask. The flasks were filled up to 50 g using a sterile aqueous solution containing 0.1% Break Thru® 5240 (Evonik, Industries) and homogenized on a magnetic stirrer (Thermo Fisher Scientific: Cimarec™) at least for 15 min with 750 rpm to achieve the first dilution step (1:100 dilution). This dilution was used for further dilution.
Not all samples mixed well or mixed at all in 0.1% Break Thru 5240. For these samples, 500 μL Neo-wett (Kwizda Agro GmbH) and/or a small amount (knife tip) Metaupon®-OMT (LEUNA Tenside GmbH) were also added to the aqueous solution.
After homogenization 1 mL were transferred into a 1.5 mL tube and were centrifuged for 15 min at 14,000 rpm (Thermo Fisher Scientific, Type Megafuge 8R). The supernatant (=upper phase) was discarded by using a pipette. The tubes were filled up to 1 mL using a sterile aqueous solution containing 0.1% Neo-wett and homogenized by vortexing.
To assess fungal viability, a method based on flow cytometry was used.

[5] = tested on: Penicillium bilaii (ATCC 20851) spores; test: spore viability (germination rate on agar) of Penicillium bilaii spores in carrier fluid after storage at 30° C.; type: cell-based
Procedure: as §1, with “1.5 g” for “3 g”, “of Penicillium bilaii (ATCC 20851)” for “of P. lilacinum strain 251”, “spoon. 13.5” for “spoon. 12”
as §2
as §3, with “1:15000” for “1:30000”, “20°” for “25°”

[6] = P. lilacinum strain 251 in the liquid, day 1
[7] = I. fumosorosea, Method 1, day 1
[8] = Method 1, storage at 30° C., 27 d
[9] = Method 1, storage at 30° C., 210 d

## CCCCOCCOCCO [Butylcarbitol, diethylenglycol monobutylether, reference compound]
[1]; [6]
  spore viability [%] at day 1: 92.7%
[1]; storage at 30° C., 12-15 d
  spore viability [%] after 2 w (12-15 d): 62.1%
[1]; storage at 30° C., 27-28 d
  spore viability [%] after 1 m (27-28 d): 10.8%
[1]; storage at 30° C., 51-55 d
  spore viability [%] after 2 m (51-55 d): 3.2%
[1]; storage at 30° C., 210 d
  spore viability [%] after 7 m (210 d): 0.6%
[1]; text summary of Table I, fluids not within the scope of the invention
  decline in spore viability at day 1 and after storage: steep decline in spore viability
[2]; [7]
  spore viability [%] at day 1: 19.1%
[2]; [8]
  spore viability [%] after 1 m (27 d): 0.5%
[2]; [9]
  spore viability [%] after 7 m (210 d): 2.4%
[3]; Beauveria bassiana, day 1
  spore viability [%] at day 1: 53.3%
[3]; Table III, fluids not within the scope of the invention
  decline in spore viability after storage under given conditions: steep decline in spore viability
[3]; storage at 30° C., 35 d
  spore viability [%] after 5 w (35 d): 0.8%

## COC(C)COC(C)COC(C)=O (stereo not drawn) [Dowanol DPMA, Dipropylene glycol methyl ether acetate]
[1]; [6]
  spore viability [%] at day 1: 99.1%
[1]; storage at 30° C., 87-92 d
  spore viability [%] after 3 m (87-92 d): 35.7%
[1]; storage at 30° C., 35 d
  spore viability [%] after 5 w (35 d): 93.0%
[2]; [7]
  spore viability [%] at day 1: 87.7%
[2]; [8]
  spore viability [%] after 1 m (27 d): 63.6%
[2]; [9]
  spore viability [%] after 7 m (210 d): 31.4%

## COC(C)COC(C)COC(C)CO (stereo not drawn) [Dowanol TPM, Tripropylene Glycol monomethyl ether]
[1]; [6]
  spore viability [%] at day 1: 85.4%
[1]; storage at 30° C., 12-15 d
  spore viability [%] after 2 w (12-15 d): 94.3%
[1]; storage at 30° C., 27-28 d
  spore viability [%] after 1 m (27-28 d): 95.6%
[1]; storage at 30° C., 51-55 d
  spore viability [%] after 2 m (51-55 d): 84.5%
[2]; [7]
  spore viability [%] at day 1: 88.0%
[2]; [8]
  spore viability [%] after 1 m (27 d): 65.4%
[2]; [9]
  spore viability [%] after 7 m (210 d): 52.6%
[4]; I. fumosorosea, Method 2, day 1
  spore viability [%] at day 1: 82.0%
[4]; Method 2, storage at 30° C., 27 d
  spore viability [%] after 1 m (27 d): 59.0%
[3]; Beauveria bassiana, day 1
  spore viability [%] at day 1: 63.9%
[3]; storage at 30° C., 14 d
  spore viability [%] after 2 w (14 d): 19.0%
[3]; storage at 30° C., 35 d
  spore viability [%] after 5 w (35 d): 15.5%
[5]; Penicillium bilaii, 1-2 d
  spore viability [%] initial (1-2 d): 67.2%
[5]; storage at 30° C., 41-43 d
  spore viability [%] 6 w@30° C. (41-43 d): 7.6%
[5]; storage at 30° C., 83-85 d
  spore viability [%] 3 m@30° C. (83-85 d): 2.8%

## Polyethyleneglycol-200 monooleate [Radiasurf 7402]
[1]
  spore viability [%] after 1 m (27-28 d): 64.8%
  spore viability [%] after 2 m (51-55 d): 34.7%
  spore viability [%] after 2 w (12-15 d): 83.6%
  spore viability [%] at day 1: 96.7%
[2]
  spore viability [%] after 1 m (27 d): 11.6%
  spore viability [%] after 7 m (210 d): 1.1%
  spore viability [%] at day 1: 92.5%
[4]
  spore viability [%] after 1 m (27 d): 15.8%
  spore viability [%] after 2 w (~14 d): 20.5%
  spore viability [%] at day 1: 89.9%

## Polyethyleneglycol-400 dioleate [Radiasurf 7442]
[1]
  spore viability [%] after 1 m (27-28 d): 98.2%
  spore viability [%] after 2 m (51-55 d): 96.8%
  spore viability [%] after 2 w (12-15 d): 96.5%
  spore viability [%] after 7 m (210 d): 88.3%
  spore viability [%] at day 1: 98.7%
[2]
  spore viability [%] after 1 m (27 d): 72.1%
  spore viability [%] at day 1: 89.4%
[4]
  spore viability [%] after 1 m (27 d): 66.3%
  spore viability [%] after 2 w (~14 d): 69.6%
  spore viability [%] at day 1: 87.4%
[3]
  spore viability [%] after 3 w (21 d): 33.2%
  spore viability [%] at day 1: 85.9%
[5]
  spore viability [%] 3 m@30° C. (83-85 d): 76.5%
  spore viability [%] 6 w@30° C. (41-43 d): 91%
  spore viability [%] initial (1-2 d): 96.7%

## Polyethyleneglycol-400 monooleate [Radiasurf 7403]
[1]
  spore viability [%] after 1 m (27-28 d): 98.9%
  spore viability [%] after 2 m (51-55 d): 93.7%
  spore viability [%] after 2 w (12-15 d): 98.3%
  spore viability [%] after 7 m (210 d): 78.3%
  spore viability [%] at day 1: 98.6%
[2]
  spore viability [%] after 1 m (27 d): 76.2%
  spore viability [%] at day 1: 94.0%
[4]
  spore viability [%] after 1 m (27 d): 92.0%
  spore viability [%] after 2 w (~14 d): 86.0%
  spore viability [%] at day 1: 89.0%
[3]
  spore viability [%] after 2 w (14 d): 77.3%
  spore viability [%] after 5 w (35 d): 72.3%
  spore viability [%] at day 1: 81.4%
  spore viability after storage for 3w or longer at 30° C.: ≥ 50%
[5]
  spore viability [%] 3 m@30° C. (83-85 d): 61.8%
  spore viability [%] 6 w@30° C. (41-43 d): 66.8%
  spore viability [%] initial (1-2 d): 78.1%
